# Literature values in US20220273779A1, “TAU PEPTIDE ANTIGENS AND ANTIBODIES BINDING THERETO FOR THE TREATMENT OF TAUOPATHIES” (The Board of Regents of the University of Texas System, priority 2018, published 2022).
# Like-named read-outs stand apart in the source and are kept apart here.
# Legend:
# [1] = RRMS, first-line treatments
substance,measurement,setting,value
glatiramer acetate,Reduction of relapses,[1],approximately 30%
same,Irritation at the injection site,intramuscular injections,≤ 33%
same,Irritation at the injection site,subcutaneous injections,up to 90%
